Experiments:
Testpflanzen [1] = test: Post-emergence test (herbicidal damage rating); assay type: in vivo; conditions: plants 5 - 15 cm sprayed, rated after three weeks, result in words only; for Wirksamkeit (Schädigungsgrad der Pflanzen): compared with reference 2-[2-(4,6-Dimethoxy)-pyrimidinylthio]-benzoesäuremethylester (EP 223406/Bsp. 11); for Nutzpflanzenselektivität: crop selectivity compared with reference 2-[2-(4,6-Dimethoxy)-pyrimidinylthio]-benzoesäuremethylester (EP 223406/Bsp. 11)
Text: Lösungsmittel: 5 Gewichtsteile Aceton
Emulgator: 1 Gewichtsteil Alkylarylpolyglykolether
(§1) Zur Herstellung einer zweckmäßigen Wirkstoffzubereitung vermischt man 1 Gewichtsteil Wirkstoff mit der angegebenen Menge Lösungsmittel, gibt die angegebene Menge Emulgator zu und verdünnt das Konzentrat mit Wasser auf die gewünschte Konzentration.
Mit der Wirkstoffzubereitung spritzt man Testpflanzen, welche eine Höhe von 5 - 15 cm haben, so, daß die jeweils gewünschten Wirkstoffmengen pro Flächeneinheit ausgebracht werden. Die Konzentration der Spritzbrühe wird so gewählt, daß in 1000 I Wasser/ha die jeweils gewünschten Wirkstoffmengen ausgebracht werden. Nach drei Wochen wird der Schädigungsgrad der Pflanzen bonitiert in % Schädigung im Vergleich zur Entwicklung der unbehandelten Kontrolle.
Es bedeuten: • 0 % = keine Wirkung (wie unbehandelte Kontrolle) • 100 % = totale Vernichtung

Testpflanzen [2] = test: Pre-emergence test (herbicidal damage rating); assay type: in vivo; conditions: seeds watered 24 h after sowing, rated after three weeks, compared with reference 2-[2-(4,6-Dimethoxy)-pyrimidinylthio]-benzoesäuremethylester (EP 223406/Bsp. 11), result in words only
Text: Lösungsmittel: 5 Gewichtsteile Aceton Emulgator: 1 Gewichtsteil Alkylarylpolyglykolether
as §1
Samen der Testpflanzen werden in normalen Boden ausgesät und nach 24 Stunden mit der Wirkstoffzubereitung begossen. Dabei hält man die Wassermenge pro Flächeneinheit zweckmäßigerweise konstant. Die Wirkstoffkonzentration in der Zubereitung spielt keine Rolle, entscheidend ist nur die Aufwandmenge des Wirkstoffs pro Flächeneinheit. Nach drei Wochen wird der Schädigungsgrad der Pflanzen bonitiert in % Schädigung im Vergleich zur Entwicklung der unbehandelten Kontrolle. Es bedeuten: • 0 % = keine Wirkung (wie unbehandelte Kontrolle) • 100 % = totale Vernichtung

Structure (SMILES) | Wirksamkeit (Schädigungsgrad der Pflanzen) (Testpflanzen [1]) | Nutzpflanzenselektivität (Testpflanzen [1]) | Wirksamkeit (Schädigungsgrad der Pflanzen) (Testpflanzen [2])
COc1cc(OC)nc(Oc2ccccc2C(=O)C=P(c2ccccc2)(c2ccccc2)c2ccccc2)n1 [Beispiel 3, {2-[2-(4,6-Dimethoxy)-pyrimidinyloxy]-benzoyl}-methylentriphenylphosphoran] | deutliche Überlegenheit | deutliche Überlegenheit | 
COc1cc(OC)nc(Oc2ccccc2C(=O)C=CN2CCCCCC2)n1 [Beispiel 1, 3-(1-Hexahydroazepino)-1-{2-[2-(4,6-dimethoxy)-pyrimidinyloxy]-phenyl}-prop-2-en-1-on] | deutliche Überlegenheit | deutliche Überlegenheit | deutliche Überlegenheit
COc1cc(OC)nc(Oc2ccccc2C(=O)C(C)=CN(C)C)n1 [Beispiel 2, 3-Dimethylamino-2-methyl-1-{2-[2-(4,6-dimethoxy)-pyrimidinyloxy]-phenyl}-prop-2-en-1-on] | deutliche Überlegenheit | deutliche Überlegenheit | 

From patent EP0467099A2, “Substituted acrylophenons” (BAYER AG, priority 1990, dated 1992)
